The source made the active and inactive calls. The rule behind the calls is not given here.
Test system: Staphylococcus aureus
Test: Antimicrobial activity against methicillin-resistant Staphylococcus aureus infected patient with skin and soft tissue infection abscesses assessed as clinical failure rate at 100 mg, po twice daily for 7 days
Assay type: functional, organism-based

For C[C@H]1c2cccc(O)c2C(=O)C2=C(O)[C@]3(O)C(=O)C(C(N)=O)=C(O)[C@@H](N(C)C)[C@@H]3[C@@H](O)[C@@H]21, the Activity was “Active”.

— ChEMBL document CHEMBL1157375, “Prospective randomized trial of empiric therapy with trimethoprim-sulfamethoxazole or doxycycline for outpatient skin and soft tissue infections in an area of high prevalence of methicillin-resistant Staphylococcus aureus” (2007)
